“And” between values parts separate entries of the source, which are not always exact repeats. Equal values may be shown once.
Tests used:
HepG2 cells = test: HepG2 cell viability under serum-free conditions (MTS); assay type: cell-based; settings: Homo sapiens
Protocol: Cancer cells such as HepG2 cells depend on SREBP activation and de novo lipogenesis to survive, particularly in low serum or serum-free conditions. Using this model, compounds were screened over 24 hours for the ability to block cleavage of SREBP to its active form and over 72 hours for an effect on cell viability under serum-free conditions.
For viability measurements, HepG2 cells were seeded at 5,000 cells per well in 96-well plates in DMEM supplemented with 10% FBS. After 1 day in culture, cells were treated with compounds (20 μM & 5 μM) for 3 days in DMEM without FBS. Viability was measured by MTS […]. […]

ob/ob mice = test: ob/ob mice: liver triglycerides, fatty acids, total cholesterol; assay type: in vivo, mouse; settings: 8 weeks; for liver fatty acids / liver total cholesterol / liver triglycerides: ob/ob mice
Protocol: Groups of mice were either untreated (group 1) or treated for 8 weeks with vehicle (group 2), or with Compound #37 at 5 mg/kg (group 3), 10 mg/kg (group 4), or 20 mg/kg (group 5). Treatment was daily by oral gavage in vehicle (20% HPβCD). Values are presented as mean±standard error of the mean (sem). A t test was performed to compare the untreated group and the vehicle group. Then Compound #37-treated groups were compared to the vehicle-treated group with a 1-way ANOVA+Dunnett's post-test. […] For each test, a p<0.05 was considered significant. Of note, animal #39, group 1 was excluded from the statistical analysis, due to low values for all parameters measured. Some other values were considered as out-liners and excluded from the statistical analysis when the value was far below the mean minus 2 SD. Excluded values are marked with an asterisk in Tables 21-23.

SCD1 = test: Short-term Paigen-diet NASH mouse model: hepatic SCD1 gene expression (RT-qPCR); assay type: in vivo; settings: SCD1 relative expression to vehicle group, 21 days
Protocol: To investigate whether Compound #37 prevents the development of pathology associated with NASH and steatosis in an acute exploratory disease model, a study was conducted using a diet-induced acute liver steatosis model in mice. As described below, in this study, C57BL/6J mice were initiated on the Paigen diet and simultaneously treated with Compound #37 (5, 20, and 40 mg/kg/day) or vehicle control (20% HPβCD 10 mL/kg/day) by oral gavage for 21 days.
After acclimation, 8-week old male C57Bl/6J mice (Charles River) weighing about 25 g were randomized in 4 groups according their body weight and treated once daily around noon by oral gavage with vehicle, or Compound #37 at various for 21 days as follows: Group 1: vehicle-20% (2-hydroxypropyl)-β-cyclodextrin (HP-β-CD) (n=10); Group 2: Compound #37, 5 mg/kg (n=10) Group 3: Compound #37, 20 mg/kg (n=10) Group 4: Compound #37, 40 mg/kg (n=10). During the treatment period, body weight and food intake (measured over 24h) were measured 3 times per week and once a week, respectively. During the acclimation, all mice were fed a standard diet (Special Diets Services RM1 (E), product no. 801492) and tap water ad libitum. After the acclimation period, mice were fed until the end of the experiment with a 60% high fat Paigen diet (60 kcal % fat, 1.25% cholesterol, and 0.5% cholate; D11061901, Research Diet) and tap water ad libitum.
(§1) Gene expression analysis. Hepatic expression levels of genes involved in lipid metabolism (FAS, SREBP1, ACC1, SCD1), cholesterol metabolism (HMG-CoAR, LDLR), SREBP proteolysis (SCAP, INSIG1), ER stress (PERK), oxidative stress (NRF2), inflammation (MCP-1), and fibrosis (collagen 1α1) were quantified by RTqPCR. Expression level was normalized to 18S gene expression and relative expression to vehicle group was calculated with the […] method.

HMGCoA = test: DIN mouse model: hepatic HMGCOA gene expression; assay type: in vivo; settings: liver, 20 mg/kg group
Protocol: as §1
Male C57Bl/6J mice (8 weeks old) were housed in enriched ventilated cages (31×12.5×12.7 cm) throughout the experimental phase. Animals' cages litters were changed at least once a week. Animal were housed 5 per cage on inverted 12-hour light cycle (at 09:00 am lights off), 22±2° C. and 55±10% relative humidity. The acclimation period was 20 days. During the acclimation period, all mice were fed a standard diet (RM1 (E) 801492, SDS) and tap water ad libitum. After the acclimation period, mice were fed with the DIN diet (60% fat, cholesterol enriched) and fructose-enriched tap water ad libitum until the end of the experiment.
At 6 weeks of diet, mice were 4-hour fasted (09:00 am to 1:00 pm) and blood (150 μl/EDTA) was collected at 01:00 pm by retro-orbital bleeding under isoflurane anesthesia. Mice were then allocated in 2 homogenous groups (n=12/group) according to their plasma levels of ALT (average levels: 685U/L), AST (average levels: 627U/L) and HOMA-IR index (average value: 4.7), into 2 homogenous groups (see values at day 0 in Tables 15A and 15B ALT/AST and Tables 16A and 16B for HOMA-IR). Mice were then treated once daily by oral gavage with vehicle (Group 1) or Compound #37 at 20 mg/kg (Group 2) for 70 days.
Hepatic expression levels of genes involved in lipid (FAS, SREBP1, ACC1, SCD1), cholesterol metabolism (HMG-CoAR, LDLR), in SREBP proteolysis (SCAP, INSIG1), in ER stress (PERK), oxidative stress (NRF2), and inflammation (MCP-1) were not changed. However, expression of collagen 1α1, involved in liver fibrosis, was reduced by 66% in mice treated with Compound #37 (p<0.05 vs. vehicle).

[1] = 5 mg/kg daily oral gavage, group mean
[2] = 5 mg/kg daily oral gavage, individual animal values, 5 mg/kg
[3] = 10 mg/kg daily oral gavage, group mean
[4] = 10 mg/kg daily oral gavage, individual animal values, 10 mg/kg
[5] = 20 mg/kg daily oral gavage, group mean
[6] = 20 mg/kg daily oral gavage, individual animal values (* = excluded from statistical analysis), 20 mg/kg
[7] = individual animals, vs vehicle mean, 20 mg/kg

`CC(C)Cc1cc(-c2nc(-c3ccc(NS(=O)(=O)C(F)(F)F)cc3Cl)cs2)ccn1` [Compound 37, N-(3-chloro-4-(2-(2-isobutylpyridin-4-yl)thiazol-4-yl)phenyl)-1,1,1-trifluoromethanesulfonamide] gave a cytotoxicity at 5 µM (HepG2 cells; HepG2, 72 h, 5 μM, 3 days, DMEM without FBS, read-out: Average Viability (% Inhibition, n = 3)) of 94%, a cytotoxicity at 20 µM (HepG2 cells; HepG2, 72 h, 20 μM, 3 days, DMEM without FBS, read-out: Average Viability (% Inhibition, n = 3)) of 95% and an IC50 (HepG2 cells; HepG2, serum-free, read-out: IC50 for decreased viability of HepG2 cells) of 2100 nM. The hepatic cholesterol concentrations (ob/ob mice) was “no effect”, the liver fatty acids (ob/ob mice; [1]) was 35.9 nmol/mg liver and the liver total cholesterol (ob/ob mice; [1]) was 12.5 μg/mg liver. The liver triglycerides (ob/ob mice; [1]) was 80.3 μg/mg liver, the liver fatty acids (ob/ob mice; [2]) was 21.39 nmol/mg liver and 38.65 nmol/mg liver and 43.56 nmol/mg liver and 43.68 nmol/mg liver and 42.30 nmol/mg liver and 26.81 nmol/mg liver and 31.47 nmol/mg liver and 34.22 nmol/mg liver and 40.04 nmol/mg liver and 36.50 nmol/mg liver and the liver total cholesterol (ob/ob mice; [2]) was 9.57 μg/mg liver and 13.21 μg/mg liver and 16.08 μg/mg liver and 15.08 μg/mg liver and 14.41 μg/mg liver and 9.18 μg/mg liver and 10.40 μg/mg liver and 12.19 μg/mg liver and 13.20 μg/mg liver and 13.39 μg/mg liver. For the same compound, the liver triglycerides (ob/ob mice; [2]) was 32.54 μg/mg liver and 89.34 μg/mg liver and 118.92 μg/mg liver and 123.01 μg/mg liver and 111.66 μg/mg liver and 54.15 μg/mg liver and 66.99 μg/mg liver and 69.20 μg/mg liver and 107.70 μg/mg liver and 29.81 μg/mg liver, the liver fatty acids (ob/ob mice; [3]) was 47.00 nmol/mg liver and the liver total cholesterol (ob/ob mice; [3]) was 14.47 μg/mg liver. For the same compound, the liver triglycerides (ob/ob mice; [3]) was 115.44 μg/mg liver, the liver fatty acids (ob/ob mice; [4]) was 29.78 nmol/mg liver and 49.10 nmol/mg liver and 42.91 nmol/mg liver and 39.50 nmol/mg liver and 43.38 nmol/mg liver and 48.06 nmol/mg liver and 58.06 nmol/mg liver and 46.42 nmol/mg liver and 53.47 nmol/mg liver and 59.33 nmol/mg liver and the liver total cholesterol (ob/ob mice; [4]) was 11.02 μg/mg liver and 14.95 μg/mg liver and 15.25 μg/mg liver and 11.27 μg/mg liver and 14.07 μg/mg liver and 16.04 μg/mg liver and 17.20 μg/mg liver and 13.65 μg/mg liver and 14.90 μg/mg liver and 17.30 μg/mg liver. The liver triglycerides (ob/ob mice; [4]) was 71.81 μg/mg liver and 110.46 μg/mg liver and 96.59 μg/mg liver and 67.76 μg/mg liver and 106.16 μg/mg liver and 153.12 μg/mg liver and 128.22 μg/mg liver and 157.22 μg/mg liver and 124.56 μg/mg liver and 138.07 μg/mg liver, the liver fatty acids (ob/ob mice; [5]) was 42.4 nmol/mg liver and the liver total cholesterol (ob/ob mice; [5]) was 13.8 μg/mg liver. For the same compound, the liver triglycerides (ob/ob mice; [5]) was 106.3 μg/mg liver, the liver fatty acids (ob/ob mice; [6]) was 46.82 nmol/mg liver and 11.67* nmol/mg liver and 43.19 nmol/mg liver and 56.93 nmol/mg liver and 36.64 nmol/mg liver and 43.21 nmol/mg liver and 40.58 nmol/mg liver and 33.97 nmol/mg liver and 38.27 nmol/mg liver and 41.87 nmol/mg liver and the liver total cholesterol (ob/ob mice; [6]) was 16.75 μg/mg liver and 7.14* μg/mg liver and 13.56 μg/mg liver and 17.52 μg/mg liver and 11.98 μg/mg liver and 14.67 μg/mg liver and 14.39 μg/mg liver and 13.53 μg/mg liver and 12.83 μg/mg liver and 9.07 μg/mg liver. The liver triglycerides (ob/ob mice; [6]) was 115.27 μg/mg liver and 10.45* μg/mg liver and 99.74 μg/mg liver and 160.82 μg/mg liver and 71.59 μg/mg liver and 95.60 μg/mg liver and 114.62 μg/mg liver and 92.80 μg/mg liver and 91.36 μg/mg liver and 115.09 μg/mg liver, the 2DDct (SCD1; 5 mg/kg, group mean) was 1.05 and the 2DDct (SCD1; 5 mg/kg, individual animals, 5 mg/kg) was 2.96 and 0.99 and 0.66 and 2.02 and 0.77 and 0.22 and 0.93 and 0.76 and 0.6 and 0.59. The 2DDct (SCD1; 20 mg/kg, group mean) was 1.18, the 2DDct (SCD1; 20 mg/kg, individual animals, 20 mg/kg) was 0.98 and 0.47 (2×) and 0.88 and 2.28 and 2 and the “HMGCOA Dct” value (HMGCoA; individual animals, normalised to 18S, 20 mg/kg) was 12.8 and 12.14 and 13.78 and 12.65 and 13.57 and 12.83 and 13.03 and 12.86 and 14.49 and 14.63 and 12.37. For the same compound, the “HMGCOA 2^DDct” value (HMGCoA; [7]) was 1.34 and 2.12 and 0.68 and 1.49 and 0.79 and 1.31 and 1.14 and 1.28 and 0.41 and 0.38 and 1.8, the “HMGCOA DDct” value (HMGCoA; [7]) was −0.42 and −1.08 and 0.56 and −0.57 and 0.35 and −0.39 and −0.19 and −0.36 and 1.27 and 1.41 and −0.85 and the “HMGCoA (Ct)” value (HMGCoA; individual animals, 20 mg/kg) was 25.35 and 24.69 and 26.62 and 25.08 and 25.92 and 25.42 and 24.76 and 25.37 and 25.99 and 26.18 and 24.72. For the same compound, the “HMGCOA 2^DDct” value (HMGCoA; mean, n 11) was 1.16, the “HMGCOA DDct” value (HMGCoA; mean, n 11) was −0.03 and the “HMGCOA Dct” value (HMGCoA; mean, n 11) was 13.2. The “HMGCoA (Ct)” value (HMGCoA; mean, n 11) was 25.5.
